The values below are quoted from earlier work in patent publication US20040005368A1, “Novel approach to weight loss comprising a modified protein composition that regulates blood sugar in conjunction with compositions that increase oxygen uptake and suppress appetite” (priority 2002, published 2004).

The conditions of this series: group of animals.

As for `CN[C@@H](C)[C@H](O)c1ccccc1` [ephedrine], the “loss in body fat” value is listed as 42% and the “loss in body weight” value is recorded as 14%.
Take `Cn1c(=O)c2c(ncn2C)n(C)c1=O` [caffeine]: the “loss in body weight” value was “no significant loss in body weight”.
